Test results: ChEMBL document CHEMBL1201862, “PubChem BioAssay data set” (2004)
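Assay format: 96-well plates, 48-hour exposure. Here, GI50 denotes the concentration required for 50% inhibition of growth.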 The source made the active and inactive calls. Rule as the data show it: active = GI50 up to about 1.1 µM and inactive = higher.

Legend:
Assay in all cases: NCI tumour cell line growth inhibition, 48 h
UACC-257 = test system: UACC-257
OVCAR-3 = test system: OVCAR-3
CAKI-1 = test system: CAKI-1
SK-OV-3 = test system: SK-OV-3
OVCAR-8 = test system: OVCAR-8
SN12C = test system: SN12C
Malme-3M = test system: Malme-3M
HL-60 = test system: HL-60
IGROV-1 = test system: IGROV-1
U-251 = test system: U-251
NCI-H23 = test system: NCI-H23
ACHN = test system: ACHN
A498 = test system: A498
NCI-H460 = test system: NCI-H460

Measured: GI50

O=C(O)/C=C\C(=O)Nc1ccc(S(=O)(=O)c2ccc(NC(=O)/C=C\C(=O)O)cc2)cc1
inactive: UACC-257 > 100 µM | OVCAR-3 > 100 µM | CAKI-1 > 100 µM | SK-OV-3 > 100 µM | OVCAR-8 > 100 µM | SN12C > 100 µM | Malme-3M > 100 µM | HL-60 > 100 µM | IGROV-1 > 100 µM | U-251 > 100 µM | NCI-H23 > 100 µM | ACHN > 100 µM

c1cc(-c2cn3ccsc3n2)ccn1
inactive: UACC-257 > 100 µM | OVCAR-3 > 100 µM | CAKI-1 > 91 µM | SK-OV-3 > 100 µM | OVCAR-8 > 45.1 µM | SN12C > 100 µM | Malme-3M > 100 µM | HL-60 > 44.9 µM | IGROV-1 > 100 µM | A498 > 100 µM | U-251 > 100 µM | NCI-H23 > 100 µM | ACHN > 100 µM | NCI-H460 99.3 µM

COCN1C(=O)C2CC(/C=C/C(N)=O)=CN2C(=O)c2ccccc21 (stereo not drawn)
inactive: OVCAR-3 > 100 µM | SK-OV-3 > 100 µM | OVCAR-8 > 100 µM | SN12C > 100 µM | HL-60 > 100 µM | IGROV-1 > 100 µM | U-251 > 100 µM | NCI-H23 > 100 µM | NCI-H460 > 100 µM

N=C(N)C1=C(O)NC(=O)N(C2CCCCC2)C1
inactive: UACC-257 > 100 µM | OVCAR-3 > 100 µM | CAKI-1 > 100 µM | SK-OV-3 > 100 µM | OVCAR-8 > 100 µM | SN12C > 100 µM | Malme-3M > 100 µM | HL-60 > 100 µM | IGROV-1 > 100 µM | A498 > 100 µM | U-251 > 100 µM | NCI-H23 > 100 µM | ACHN > 100 µM | NCI-H460 > 100 µM

Cc1ccc(C(=O)O)cc1NC(=O)c1cc(/C=C/c2ccccc2)[nH]c(=S)n1
inactive: UACC-257 > 100 µM | OVCAR-3 > 100 µM | CAKI-1 > 100 µM | SK-OV-3 > 100 µM | OVCAR-8 > 100 µM | SN12C > 100 µM | Malme-3M > 100 µM | HL-60 > 69 µM | IGROV-1 > 100 µM | A498 > 100 µM | U-251 > 100 µM | NCI-H23 > 100 µM | ACHN > 89.9 µM | NCI-H460 > 100 µM

O.O=C([O-])c1ccccc1Nc1ccccc1C(=O)[O-].[Zn+2]
inactive: UACC-257 14.3 µM | OVCAR-3 18.8 µM | CAKI-1 5.08 µM | SK-OV-3 20.4 µM | OVCAR-8 26.9 µM | SN12C 83.8 µM | Malme-3M 23.2 µM | HL-60 23.7 µM | IGROV-1 13.3 µM | A498 19.2 µM | U-251 18.7 µM | NCI-H23 18.2 µM | ACHN > 100 µM | NCI-H460 > 65.9 µM

C#CCn1c(=O)c2cccnc2n(CC#C)c1=O
inactive: UACC-257 > 100 µM | CAKI-1 > 100 µM | SK-OV-3 > 100 µM | SN12C > 100 µM | Malme-3M > 100 µM | HL-60 > 100 µM | U-251 > 100 µM | NCI-H23 > 100 µM | ACHN > 100 µM | NCI-H460 > 100 µM

N#Cc1cccc(-n2[nH]c(=O)ccc2=O)c1
inactive: UACC-257 > 100 µM | OVCAR-3 > 100 µM | CAKI-1 > 100 µM | OVCAR-8 > 100 µM | Malme-3M > 100 µM | HL-60 > 100 µM | IGROV-1 > 100 µM | U-251 > 100 µM | NCI-H23 > 100 µM | ACHN > 100 µM | NCI-H460 > 100 µM

COc1ccc(-c2cc(C(=O)Nc3ccc(C)c(C)c3)nc(NC#N)n2)cc1
inactive: UACC-257 > 100 µM | OVCAR-3 > 100 µM | CAKI-1 > 100 µM | SK-OV-3 > 100 µM | OVCAR-8 > 100 µM | SN12C > 100 µM | Malme-3M > 100 µM | IGROV-1 > 100 µM | A498 > 100 µM | U-251 > 100 µM | NCI-H23 > 100 µM | ACHN > 100 µM | NCI-H460 > 100 µM

N#CC(NNC(=O)c1ccccc1O)c1cccc(O)c1 (stereo not drawn)
inactive: UACC-257 10.1 µM | OVCAR-3 13 µM | CAKI-1 5.43 µM | SK-OV-3 3.93 µM | OVCAR-8 8.22 µM | SN12C 4.7 µM | Malme-3M 12.9 µM | HL-60 4.74 µM | IGROV-1 3.4 µM | U-251 2.99 µM | NCI-H23 2.9 µM | ACHN 2.31 µM | NCI-H460 3.47 µM

COc1cc2nncc(Sc3cnnc4ccccc34)c2cc1OC
inactive: UACC-257 23.1 µM | OVCAR-3 17.4 µM | CAKI-1 11.8 µM | SK-OV-3 14.7 µM | Malme-3M 17.2 µM | HL-60 22.1 µM | IGROV-1 21.9 µM | A498 26.7 µM | U-251 25.5 µM | NCI-H23 > 10 µM | ACHN 20.1 µM | NCI-H460 22.8 µM

CS(=O)(=O)ON1C(=O)c2ccc(N)cc2C1=O
inactive: UACC-257 > 31.6 µM | OVCAR-3 > 100 µM | SK-OV-3 > 100 µM | OVCAR-8 21.7 µM | SN12C > 100 µM | Malme-3M > 100 µM | HL-60 17.5 µM | IGROV-1 > 100 µM | A498 > 100 µM | U-251 > 100 µM | NCI-H23 > 100 µM | ACHN > 100 µM | NCI-H460 > 100 µM

CCN(CC)CC1c2ccccc2C(CNc2ccccc2)N1C (stereo not drawn)
inactive: UACC-257 > 100 µM | OVCAR-3 > 100 µM | CAKI-1 92 µM | SK-OV-3 > 100 µM | OVCAR-8 > 100 µM | SN12C > 100 µM | Malme-3M > 100 µM | HL-60 29.6 µM | IGROV-1 > 100 µM | NCI-H23 > 100 µM | ACHN > 100 µM | NCI-H460 > 100 µM

O=C1C=CC2(C=C1)CCNC1=C2C(=O)c2ccccc2C1=O
inactive: UACC-257 50 µM | OVCAR-3 28.5 µM | SK-OV-3 > 100 µM | OVCAR-8 > 100 µM | SN12C > 100 µM | Malme-3M > 100 µM | HL-60 > 100 µM | IGROV-1 > 100 µM | A498 > 100 µM | U-251 > 100 µM | NCI-H23 > 100 µM | ACHN > 100 µM | NCI-H460 > 100 µM

O=C(c1ccccc1)C(c1ccccc1)C1(O)C(=O)Nc2c(Cl)cc(Cl)cc21 (stereo not drawn)
inactive: UACC-257 18.6 µM | OVCAR-3 26 µM | CAKI-1 17.4 µM | SK-OV-3 30.2 µM | OVCAR-8 16.1 µM | SN12C > 100 µM | Malme-3M 18.6 µM | HL-60 12.6 µM | U-251 26.2 µM | NCI-H23 18 µM | ACHN 17.1 µM | NCI-H460 28.2 µM

O=C(N/C=C/C=C/Sc1ccccc1)OCc1ccccc1
inactive: UACC-257 18.7 µM | OVCAR-3 17.3 µM | CAKI-1 20.3 µM | SK-OV-3 33.8 µM | OVCAR-8 15.7 µM | SN12C 17.1 µM | HL-60 8.83 µM | IGROV-1 21.2 µM | U-251 19.3 µM | NCI-H23 22.7 µM | ACHN 27.2 µM | NCI-H460 21.7 µM
